Reference: PMC6220203, “Cellular signaling and gene expression profiles evoked by a bivalent macrocyclic peptide that serves as an artificial MET receptor agonist” (Scientific Reports, 2018)

Tested on: MET receptor / AKT in EHMES-1 cells
Experiment: Western blot of MET and AKT phosphorylation with or without PHA665752
Assay type: cell-based, human
Conditions: PHA665752 100 nM, stimulated by 1 nM HGF or 120 nM aMD5-PEG11, 10 min
Procedure: EHMES-1 cells were seeded at 9 × 10^5 cells per well in 6-well plates and cultured overnight. To treat the cells with the MET receptor tyrosine kinase inhibitor, EHMES-1 cells were seeded at 3 × 10^5 cells per well in 24-well plates and cultured with or without 100 nM PHA665752 for 12 h. After serum starvation for 4 h, cells were stimulated with HGF or dimeric macrocycle peptide. After washing with ice-cold PBS, cells were lysed in 200 μl 1 × SDS-PAGE Laemmli sample buffer and treated with ultrasonification (Vibra-cell). Cell lysates were analyzed by SDS-PAGE with a 7.5% polyacrylamide gel and electroblotted onto a PVDF membrane. The membrane was treated with primary antibodies (1:1000), followed by HRP-conjugated secondary antibodies (Dako) (1:2000). Chemiluminescence was visualized and quantitated using ImmunoStar LD (Wako). Original blots are provided by supplementary info.

SMILES: Cc1[nH]c(/C=C2\C(=O)Nc3ccc(S(=O)(=O)Cc4c(Cl)cccc4Cl)cc32)c(C)c1C(=O)N1CCC[C@@H]1CN1CCCC1 [PHA665752]
- inhibition of MET receptor and AKT activation: almost completely blocked the activation of the MET receptor and AKT to basal levels
